According to DBAASP:
Values after ≈ are worked out from the molar mass of the structure shown.

Legend:
Experiment in all cases: ≥ marks a high value that may be exact or a test limit, other limits are often not marked, values filed in µg/mL are converted to µM
Escherichia coli = test system: Escherichia coli
Bacillus cereus = test system: Bacillus cereus
Staphylococcus aureus = test system: Staphylococcus aureus
[1] = test system: Pseudomonas aeruginosa ATCC 27853
[2] = test system: Staphylococcus epidermidis ATCC 12228
[3] = test system: Staphylococcus aureus ATCC 25923
[4] = test system: Escherichia coli ATCC 25922

Row | Compound | MIC (Escherichia coli) [µM] | MIC (Bacillus cereus) [µM] | further results
1 | CC(C)C[C@H](NC(=O)[C@@H](N)Cc1ccccc1)C(=O)NCC(=O)N[C@@H](CCCCN)C(=O)N[C@H](C(=O)N[C@H](C(=O)N[C@@H](CCCCN)C(=O)NCC(=O)N[C@@H](C)C(=O)N[C@@H](CO)C(=O)N[C@@H](CCCCN)C(=O)N[C@H](C(=O)N[C@@H](Cc1ccccc1)C(=O)N1CCC[C@H]1C(=O)N[C@@H](C)C(=O)N[C@H](C(=O)N[C@@H](Cc1ccccc1)C(=O)NCC(=O)N[C@@H](CCCCN)C(=O)N[C@H](C(=O)O)C(C)C)C(C)C)C(C)C)C(C)C)C(C)C [FLGKVVKGASKVFPAVFGKV] | > 123 | ≥ 123 | MIC (Staphylococcus aureus): > 123 µM
2 | CSCC[C@H](NC(=O)[C@@H](N)Cc1ccccc1)C(=O)N[C@@H](CCCCN)C(=O)N[C@H](C(=O)N[C@@H](CC(C)C)C(=O)N[C@@H](C)C(=O)N[C@H](C(=O)N[C@@H](Cc1ccccc1)C(=O)NCC(=O)N[C@@H](CO)C(=O)N[C@H](C(=O)N[C@H](C(=O)N[C@H](C(=O)N[C@@H](CO)C(=O)N[C@@H](C)C(=O)N1CCC[C@H]1C(=O)N[C@@H](CCCCN)C(=O)N[C@@H](C)C(=O)N[C@@H](CO)C(=O)N[C@@H](CCCCN)C(=O)O)[C@@H](C)O)C(C)C)C(C)C)C(C)C)C(C)C [FMKVLAVFGSVVTSAPKASK] | > 124 | ≥ 124 | –
3 | CC[C@H](C)[C@H](NC(=O)[C@H](C)NC(=O)[C@H](CCCCN)NC(=O)[C@H](CC(C)C)NC(=O)[C@H](C)NC(=O)[C@@H](NC(=O)[C@H](Cc1cnc[nH]1)NC(=O)[C@H](C)NC(=O)[C@@H](NC(=O)[C@@H](NC(=O)[C@H](CCCCN)NC(=O)[C@H](CCCCN)NC(=O)[C@H](C)NC(=O)[C@H](CO)NC(=O)[C@H](CCCCN)NC(=O)[C@H](Cc1ccccc1)NC(=O)[C@@H](NC(=O)[C@H](CCCCN)NC(=O)[C@H](C)NC(=O)[C@H](Cc1ccccc1)NC(=O)[C@H](CO)NC(=O)[C@H](CCCCN)NC(=O)[C@H](Cc1c[nH]c2ccccc12)NC(=O)[C@H](CCCCN)NC(C)=O)[C@@H](C)O)[C@@H](C)O)C(C)C)[C@@H](C)O)C(=O)N[C@@H](CO)C(=O)N[C@@H](CO)C(N)=O [KWKSFAKTFKSAKKTVAHTALKAISS] | – | – | MIC [1]: 125 µM (≈ 363 µg/mL); MIC [2]: 125 µM (≈ 363 µg/mL); MIC [3]: 125 µM (≈ 363 µg/mL); MIC [4]: 125 µM (≈ 363 µg/mL)
4 | CC[C@H](C)[C@H](NC(=O)[C@H](CO)NC(=O)[C@H](CC(C)C)NC(=O)CNC(=O)[C@@H](NC(=O)[C@@H](NC(=O)[C@H](CCCCN)NC(=O)[C@@H]1CCCN1)C(C)C)C(C)C)C(=O)N[C@H](C(=O)N[C@H](C(=O)N[C@H](C(=O)N[C@@H](CCCCN)C(=O)N[C@@H](C)C(=O)N[C@@H](CCCCN)C(=O)N[C@H](C(=O)N[C@@H](CO)C(=O)N[C@@H](CO)C(=O)N[C@@H](C)C(=O)N[C@@H](CC(C)C)C(=O)NCC(=O)O)C(C)C)C(C)C)C(C)C)C(C)C [PKVVGLSIVVVKAKVSSALG] | > 131 | ≥ 131 | –
5 | CC(C)C[C@H](NC(=O)[C@H](Cc1ccc(O)cc1)NC(=O)[C@H](Cc1ccc(O)cc1)NC(=O)CNC(=O)[C@H](Cc1c[nH]c2ccccc12)NC(=O)[C@@H](N)CO)C(=O)NCC(=O)N[C@@H](CCCCN)C(=O)N[C@@H](CCCCN)C(=O)N[C@@H](C)C(=O)N[C@@H](CCCN=C(N)N)C(=O)N[C@@H](Cc1c[nH]c2ccccc12)C(=O)N[C@@H](CC(N)=O)C(=O)N[C@@H](CC(C)C)C(=O)N[C@@H](CCCCN)C(=O)N[C@@H](Cc1cnc[nH]1)C(=O)N1CCC[C@H]1C(=O)N[C@@H](Cc1ccc(O)cc1)C(=O)N[C@H](C(=O)N[C@@H](CCC(N)=O)C(=O)N[C@@H](Cc1ccccc1)C(=O)O)C(C)C [SWGYYLGKKARWNLKHPYVQF] | – | – | MIC [2]: > 50 µM
6 | CC(C)C[C@H](NC(=O)[C@H](Cc1ccc(O)cc1)NC(=O)[C@H](Cc1ccc(O)cc1)NC(=O)CNC(=O)[C@H](Cc1c[nH]c2ccccc12)NC(=O)[C@@H](N)CO)C(=O)NCC(=O)O [SWGYYLG] | – | – | MIC [2]: > 50 µM
7 | CC[C@H](C)[C@H](NC(=O)[C@H](CCCCN)NC(=O)[C@@H](NC(=O)[C@H](C)NC(=O)[C@@H](NC(=O)[C@H](CC(C)C)NC(=O)[C@H](CCCCN)NC(=O)[C@H](C)NC(=O)[C@@H](NC(=O)[C@@H](NC(=O)CNC(=O)[C@@H](NC(=O)[C@H](CC(C)C)NC(=O)[C@@H](N)[C@@H](C)O)C(C)C)C(C)C)C(C)C)C(C)C)[C@@H](C)O)C(=O)NCC(=O)N[C@@H](CO)C(=O)N[C@@H](CO)C(=O)N1CCC[C@H]1C(=O)N[C@@H](CCCN=C(N)N)C(=O)N[C@@H](C)C(=O)O [TLVGVVAKLVATKIGSSPRA] | > 130 | ≥ 130 | –

Continued, in another order:

Row | MIC (Escherichia coli) [µM] | MIC (Bacillus cereus) [µM] | Compound | further results
8 | > 119 | ≥ 119 | CC[C@H](C)[C@H](NC(=O)CNC(=O)[C@H](C)NC(=O)[C@H](Cc1ccc(O)cc1)NC(=O)[C@@H](NC(=O)[C@H](CC(C)C)NC(=O)[C@H](C)N)C(C)C)C(=O)N[C@@H](CCCCN)C(=O)N[C@@H](CCCCN)C(=O)N[C@H](C(=O)N[C@@H](C)C(=O)N[C@@H](Cc1ccccc1)C(=O)N[C@@H](CC(C)C)C(=O)N[C@@H](CCCCN)C(=O)N[C@H](C(=O)N[C@@H](CCC(N)=O)C(=O)N[C@@H](CCCCN)C(=O)N[C@@H](CS)C(=O)N[C@@H](CC(=O)O)C(=O)NCC(=O)O)C(C)C)[C@@H](C)O [ALVYAGIKKTAFLKVQKCDG] | –
9 | 119 (≈ 256 µg/mL) | ≥ 119 | CC(C)C[C@H](NC(=O)[C@@H](N)Cc1ccccc1)C(=O)NCC(=O)N[C@@H](CCCCN)C(=O)N[C@H](C(=O)N[C@@H](Cc1ccccc1)C(=O)N[C@@H](CCCCN)C(=O)N[C@@H](CCCCN)C(=O)N[C@@H](C)C(=O)N[C@@H](CO)C(=O)N[C@@H](CCCCN)C(=O)N[C@H](C(=O)N[C@H](C(=O)N1CCC[C@H]1C(=O)N[C@@H](C)C(=O)N[C@H](C(=O)N[C@@H](Cc1ccccc1)C(=O)NCC(=O)N[C@@H](CCCCN)C(=O)N[C@H](C(=O)O)C(C)C)C(C)C)C(C)C)C(C)C)C(C)C [FLGKVFKKASKVVPAVFGKV] | MIC (Staphylococcus aureus): > 119 µM
10 | 7.33 (≈ 16 µg/mL) | 7.33 (≈ 16 µg/mL) | CC(C)C[C@H](NC(=O)[C@H](CCCCN)NC(=O)[C@H](Cc1ccccc1)NC(=O)[C@@H](NC(=O)[C@H](CCCCN)NC(=O)CNC(=O)[C@H](CC(C)C)NC(=O)[C@@H](N)Cc1ccccc1)C(C)C)C(=O)N[C@@H](C)C(=O)N[C@@H](CO)C(=O)N[C@@H](CCCCN)C(=O)N[C@H](C(=O)N[C@@H](Cc1ccccc1)C(=O)N1CCC[C@H]1C(=O)N[C@@H](C)C(=O)N[C@H](C(=O)N[C@@H](Cc1ccccc1)C(=O)NCC(=O)N[C@@H](CCCCN)C(=O)N[C@H](C(=O)O)C(C)C)C(C)C)C(C)C [FLGKVFKLASKVFPAVFGKV] | MIC (Staphylococcus aureus): 14.7 µM (≈ 32 µg/mL)
11 | 29.9 (≈ 64 µg/mL) | 14.9 (≈ 32 µg/mL) | CC(C)C[C@H](NC(=O)[C@H](CCCCN)NC(=O)[C@H](Cc1ccccc1)NC(=O)[C@@H](NC(=O)[C@H](CO)NC(=O)CNC(=O)[C@H](CC(C)C)NC(=O)[C@@H](N)Cc1ccccc1)C(C)C)C(=O)N[C@@H](C)C(=O)N[C@@H](CO)C(=O)N[C@@H](CCCCN)C(=O)N[C@H](C(=O)N[C@@H](Cc1ccccc1)C(=O)N1CCC[C@H]1C(=O)N[C@@H](C)C(=O)N[C@H](C(=O)N[C@@H](Cc1ccccc1)C(=O)NCC(=O)N[C@@H](CCCCN)C(=O)N[C@H](C(=O)O)C(C)C)C(C)C)C(C)C [FLGSVFKLASKVFPAVFGKV] | MIC (Staphylococcus aureus): 29.9 µM (≈ 64 µg/mL)
12 | > 118 | ≥ 118 | CC[C@H](C)[C@H](NC(=O)[C@H](CCCCN)NC(=O)[C@@H](NC(=O)[C@@H](NC(=O)[C@H](Cc1ccc(O)cc1)NC(=O)[C@@H](NC(=O)[C@@H](N)CCCCN)C(C)C)C(C)C)C(C)C)C(=O)N[C@@H](C)C(=O)N[C@H](C(=O)N1CCC[C@H]1C(=O)N[C@@H](CS)C(=O)N[C@@H](Cc1ccccc1)C(=O)N1CCC[C@H]1C(=O)N[C@@H](CCCCN)C(=O)N[C@@H](CO)C(=O)N[C@@H](C)C(=O)N[C@@H](CCCN=C(N)N)C(=O)N[C@@H](CO)C(=O)N[C@H](C(=O)N[C@@H](CO)C(=O)O)C(C)C)C(C)C [KVYVVKIAVPCFPKSARSVS] | –
13 | 59.8 (≈ 128 µg/mL) | ≥ 120 | CC(C)C[C@H](NC(=O)[C@H](CCCCN)NC(=O)[C@H](Cc1ccccc1)NC(=O)[C@@H](NC(=O)[C@H](C)NC(=O)[C@@H]1CCCN1C(=O)[C@@H](N)CC(C)C)C(C)C)C(=O)N[C@@H](C)C(=O)N[C@@H](CO)C(=O)N[C@@H](CCCCN)C(=O)N[C@H](C(=O)N[C@@H](Cc1ccccc1)C(=O)N1CCC[C@H]1C(=O)N[C@@H](C)C(=O)N[C@H](C(=O)N[C@@H](Cc1ccc(O)cc1)C(=O)N[C@@H](CS)C(=O)N[C@@H](CCCCN)C(=O)N[C@@H](C)C(=O)N[C@@H](CO)C(=O)O)C(C)C)C(C)C [LPAVFKLASKVFPAVYCKAS] | –
14 | > 120 | ≥ 120 | CC[C@H](C)[C@H](NC(=O)[C@H](CCCCN)NC(=O)[C@H](Cc1ccccc1)NC(=O)[C@@H](NC(=O)[C@@H](NC(=O)[C@@H]1CCCN1C(=O)[C@@H](N)CC(C)C)C(C)C)C(C)C)C(=O)N[C@@H](C)C(=O)N[C@@H](CO)C(=O)N[C@@H](CCCCN)C(=O)N[C@H](C(=O)N[C@H](C(=O)N1CCC[C@H]1C(=O)N[C@@H](CO)C(=O)N[C@H](C(=O)N[C@H](C(=O)N[C@@H](CO)C(=O)N[C@@H](CCCCN)C(=O)N[C@H](C(=O)N[C@H](C(=O)O)[C@@H](C)O)[C@@H](C)CC)[C@@H](C)CC)C(C)C)C(C)C)C(C)C [LPVVFKIASKVVPSVISKIT] | –
15 | > 122 | ≥ 122 | CC[C@H](C)[C@H](NC(=O)[C@H](Cc1ccccc1)NC(=O)[C@H](CCCCN)NC(=O)[C@H](C)NC(=O)[C@@H](NC(=O)[C@H](CO)NC(=O)[C@H](CCCCN)NC(=O)[C@@H](N)CCSC)[C@@H](C)CC)C(=O)N[C@@H](C)C(=O)N[C@@H](CCCCN)C(=O)N[C@H](C(=O)N[C@H](C(=O)N[C@@H](C)C(=O)N[C@@H](CCCCN)C(=O)N[C@@H](CCC(N)=O)C(=O)NCC(=O)N[C@@H](C)C(=O)N[C@@H](CCCCN)C(=O)N[C@@H](CCC(N)=O)C(=O)NCC(=O)O)C(C)C)[C@@H](C)O [MKSIAKFIAKTVAKQGAKQG] | –
